This data set is described as follows: Thermo Scientific Acclaim RSLC 120 C18, 100 × 2.1 mm, 2.2 µm, 30 °C; A: 90% water + 10% methanol + 0.01% formic acid + 5 mM ammonium formate; B: methanol + 0.01% formic acid + 5 mM ammonium formate; gradient (min/%B) 0.1/1 3/39 14/99.9 16/99.9. To be noted: stereoisomer not certain.
On to `CC=CC(=O)N(CC)c1ccccc1C`, for which the LC retention time amounted to 9.24 min.
Take `CC(=O)Nc1ccc(OCC(O)CNC(C)C)cc1` (stereo not given): the LC retention time is 3.34 min.
As for `c1ccc(C(c2ccccc2)C2CCCCN2)cc1` (stereo not given), the LC retention time came out at 6.3 min.
For `COP(=O)(NC(C)=O)SC` (stereo not given), the LC retention time was determined as 3.11 min.
For `Cc1ccc(N(CC2=NCCN2)c2cccc(O)c2)cc1`, the LC retention time was found to be 5.86 min.
With `Cc1c(NC=O)c(=O)n(-c2ccccc2)n1C` the figure was 3.96 min; with `CC12CCC3c4ccc(O)cc4CCC3C1CC(O)C2O` (stereo not given), 6.83 min.
On to `COP(=O)(OC)Oc1ccc(SC)c(C)c1`, for which the LC retention time turned out to be 8.82 min.
On to `Cc1c(NC(C)C)c(=O)n(-c2ccccc2)n1C`, for which the LC retention time is 5.72 min.
Turning to `CCC(C(N)=O)N1CCCC1=O` (stereo not given), the LC retention time turned out to be 3.74 min.
With `CC(CC(c1ccccc1)c1ccccc1)NC(C)(C)C` (stereo not given) the figure was 7.91 min; with `NC(N)=Nc1nc(CSCCC(N)=NS(N)(=O)=O)cs1`, 3.24 min.
Consider `CC(C)(C)c1ccc(C(=O)CCCN2CCC(OC(c3ccccc3)c3ccccc3)CC2)cc1`, for which the LC retention time amounted to 10.9 min.
Take `COc1ccc2c3c1OC1C(O)C=CC4C(C2)NCCC341` (stereo not given): the LC retention time turned out to be 3.5 min.
For `CCCCCC(C)n1c(C)c(C(=O)c2cccc3ccccc23)c2ccccc21` (stereo not given), the LC retention time is 13 min.
For `CN1CCCCC1CCN1c2ccccc2Sc2ccc(S(C)=O)cc21` (stereo not given), the LC retention time is 6.74 min.
Consider `COP(N)(=S)Oc1ccccc1C(=O)OC(C)C` (stereo not given), for which the LC retention time came out at 8.32 min.
Consider `CC=C1CC(C)C(C)(O)C(=O)OCC2=CCN(C)CCC(OC1=O)C2=O` (stereo not given), for which the LC retention time came out at 5.16 min.
As to `COc1cc(NS(=O)(=O)c2ccc(N)cc2)ncn1`, the LC retention time is 4.75 min.
With `COC(=O)C(NC(=O)c1cn(CC2CCCCC2)c2ccccc12)C(C)(C)C` (stereo not given), the LC retention time amounted to 12.4 min.
As for `CNC(C)C(=O)c1ccc2c(c1)OCO2` (stereo not given), the LC retention time stood at 3.81 min.
With `CC(C)=CCN1CCC2(C)c3cc(O)ccc3CC1C2C` (stereo not given), the LC retention time was 5.46 min.
On to `Cc1nnc2n1-c1ccc([N+](=O)[O-])cc1C(c1ccccc1)=NC2`, for which the LC retention time worked out at 6.91 min.
Consider `COC(=O)C1=C(C)NC(C)=C(C(=O)OC)C1c1ccccc1[N+](=O)[O-]`, for which the LC retention time stood at 8.31 min.
Take `CCCCN1CC(=O)N2C(Cc3c([nH]c4ccccc34)C2c2ccc3c(c2)OCO3)C1=O` (stereo not given): the LC retention time was 10.2 min.
Turning to `COC(=O)c1ccccc1C(=O)OC`, the LC retention time amounted to 6.63 min.
For `CCOC(=O)C1CC(=O)C(=C(O)C2CC2)C(=O)C1` (stereo not given), the LC retention time was 8.45 min.
For the compound `CCCCNc1cc(C(=O)O)cc(S(N)(=O)=O)c1Oc1ccccc1`, the LC retention time was found to be 7.83 min.
On to `CCCCCn1cc(C(=O)c2ccc(C)c3ccccc23)c2ccccc21`, for which the LC retention time turned out to be 12.9 min.
For `CN(C)c1ccc(C(c2ccccc2)c2ccc(N(C)C)cc2)cc1`, the LC retention time is 13.7 min.
Consider `c1ccc(C2CN3CCSC3=N2)cc1` (stereo not given), for which the LC retention time came out at 3.68 min.
In the case of `Cn1c(=O)c2c(ncn2C)n(C)c1=O` it was 4.23 min; in that of `CCCCN1CCCCC1C(=O)Nc1c(C)cccc1C` (stereo not given), 6.18 min.
In the case of `CCOP(=S)(NC(C)C)Oc1ccccc1C(=O)OC(C)C` (stereo not given), the LC retention time came out at 11.2 min.
Turning to `CCOC1Oc2ccc(OS(C)(=O)=O)cc2C1(C)C` (stereo not given), the LC retention time came out at 9.14 min.
With `c1cnc2cc3c(cc2n1)C1CNCC3C1` the figure was 3.63 min; with `CCCCCCCCc1ccc(OCCO)cc1`, 12.4 min; with `CN(C)C(=S)SSC(=S)N(C)C`, 6.8 min.
Take `CCCCn1cc(C(=O)c2cccc3ccccc23)c2ccc(O)cc21`: the LC retention time was determined as 10.6 min.
With `CCOC(=O)C1C(OC(=O)c2ccccc2)CC2CCC1N2C` (stereo not given) the figure was 5.46 min; with `C=CCOc1ccccc1OCC(O)CNC(C)C` (stereo not given), 5.66 min.
Take `CCOc1nc2cccc(C(=O)OC(C)OC(=O)OC3CCCCC3)c2n1Cc1ccc(-c2ccccc2-c2nn[nH]n2)cc1` (stereo not given): the LC retention time was determined as 12.2 min.
On to `CN(C)CCC=C1c2ccccc2COc2ccccc21`, for which the LC retention time came out at 7.01 min.
Take `CC(C)c1ccc(NC(=O)N(C)C)cc1`: the LC retention time was 8.32 min.
Turning to `Cc1ccc(NC=O)c(C)c1`, the LC retention time was 6.67 min.
In the case of `CNC(C)C(=O)c1ccc(C)cc1` (stereo not given) it was 4.49 min.
As to `CC(C(=O)c1ccccc1)N1CCCC1` (stereo not given), the LC retention time is 4.01 min.
With `CC1COCc2cc3c(cc21)C(C)(C)C(C)C3(C)C` (stereo not given), the LC retention time amounted to 13.9 min.
For `CCN(CC)CCNC(=O)c1cc(S(C)(=O)=O)ccc1OC`, the LC retention time is 3.41 min.
With `CCCC(C(=O)c1ccc(C)cc1)N1CCCC1` (stereo not given) the figure was 6.03 min.
With `COc1ccc2c3c1OC1CC(O)C=CC31CCN(C)C2` (stereo not given) the figure was 2.99 min; with `CCN(CC)CC#CCOC(=O)C(O)(c1ccccc1)C1CCCCC1` (stereo not given), 8.92 min; with `CN1CCC23c4c5ccc(O)c4OC2C(=O)CCC3(O)C1C5` (stereo not given), 2.75 min.
Take `CNC(C)Cc1cccs1` (stereo not given): the LC retention time is 3.69 min.
Turning to `CCC(N)Cc1c[nH]c2ccccc12` (stereo not given), the LC retention time stood at 5.04 min.
As for `CC=CCC1=C(C)C(OC(=O)C2C(C=C(C)C)C2(C)C)CC1=O` (stereo not given), the LC retention time was 12.9 min.
As to `Cc1noc(NS(=O)(=O)c2ccc(N)cc2)c1C`, the LC retention time is 4.71 min.
With `CC(NC(=O)C(N)CC(=O)O)C(=O)NC1C(C)(C)SC1(C)C` (stereo not given), the LC retention time stood at 6.09 min.
For the compound `Cc1ncc(CO)c(CO)c1O`, the LC retention time was 2.18 min.
Consider `COc1ccc2[nH]c(C)c(CCN(C)C)c2c1`, for which the LC retention time turned out to be 4.19 min.
With `O=c1[nH]c2ccccc2n1CCCN1CCN(C(c2ccccc2)c2ccccc2)CC1`, the LC retention time was found to be 8.42 min.
For `CCCCCn1cc(C(=O)Cc2cccc(OC)c2)c2ccccc21`, the LC retention time was determined as 11.6 min.
`CC(COc1ccc(Oc2ccccc2)cc1)Oc1ccccn1` (stereo not given): the LC retention time came to 12.6 min.
As to `COC(=O)c1ccccc1CS(=O)(=O)NC(=O)Nc1nc(OC)cc(OC)n1`, the LC retention time is 8.77 min.
For `CCCCOc1cc(C(=O)OCCN(CC)CC)ccc1N`, the LC retention time came to 5.94 min.
For `NCCc1ccccc1`, the LC retention time was found to be 3.57 min.
With `CCC(CC)(CNC(=O)CCCO)c1cccc(OC)c1` the figure was 8.98 min.
On to `NS(=O)(=O)c1cc(C(=O)O)cc(N2CCCC2)c1Oc1ccccc1`, for which the LC retention time worked out at 7.17 min.
Consider `CC(=O)Nc1ccc(S(=O)(=O)Nc2nc(C)cc(C)n2)cc1`, for which the LC retention time was found to be 4.59 min.
With `CCN(CC)c1nc(C)cc(OP(=S)(OC)OC)n1` the figure was 11.3 min; with `CN1CCN(C)C1=O`, 3.53 min.
On to `Cc1cc(C(C)(C)C)cc(C)c1CC1=NCCN1`, for which the LC retention time was determined as 7.75 min.
On to `CNC(=O)N(C)c1nc2ccccc2s1`, for which the LC retention time came out at 8.26 min.
Consider `CCCCCn1cc(C(=O)N2CCN(C)CC2)c2ccccc21`, for which the LC retention time came out at 7.75 min.
With `COC(=O)C(NC(=O)c1nn(CC2CCCCC2)c2ccccc12)C(C)(C)C` (stereo not given) the figure was 12.9 min.
In the case of `Cc1ccc(C(=CCN2CCCC2)c2cccc(C=CC(=O)O)n2)cc1`, the LC retention time was 6.66 min.
With `CN1CSC(=S)N(C)C1`, the LC retention time stood at 3.97 min.
As for `O=C(Oc1cccc2cccnc12)c1cn(CC2CCCCC2)c2ccccc12`, the LC retention time was 12.4 min.
As to `CN(C(=O)CN(CCO)CC(=O)N(C)C(C)(C)Cc1ccccc1)C(C)(C)Cc1ccccc1`, the LC retention time was 10.9 min.
Consider `Nc1ccn(C2OC(CO)C(O)C2O)c(=O)n1` (stereo not given), for which the LC retention time was found to be 1.39 min.
In the case of `CCC(=O)C1C(=O)CC(C(=O)O)CC1=O` (stereo not given) it was 5.63 min.
With `CCCc1nc(C)c2c(=O)[nH]c(-c3cc(S(=O)(=O)N4CCCCC4)ccc3OCC)nn12` the figure was 10.6 min; with `Cc1ccccc1C(=O)Nc1cccc(OC(C)C)c1`, 9.62 min; with `COc1ccc(CNC(=O)c2cc([N+](=O)[O-])ccc2NC(C)CO)cc1OC` (stereo not given), 7.8 min.
Turning to `NNC(N)=O`, the LC retention time was found to be 1.33 min.
Regarding `C=CCC(C(=O)NC(N)=O)C(C)C` (stereo not given), the LC retention time came to 6.94 min.
Regarding `CC1(C)CC1C(=O)NC(=CCCCCSCC(N)C(=O)O)C(=O)O` (stereo not given), the LC retention time worked out at 4.88 min.
Regarding `COC(=O)C(Cc1ccccc1)NC(=O)C(N)CC(=O)O` (stereo not given), the LC retention time came out at 5.01 min.
With `CN(C)c1nc(=O)n(C2CCCCC2)c(=O)n1C` the figure was 7.09 min; with `NCC(O)c1ccccc1` (stereo not given), 2.84 min.
For the compound `CCOP(=S)(OCC)N1C(=O)c2ccccc2C1=O`, the LC retention time came out at 10.2 min.
With `CC1CCCC(C)N1CCCC(O)(c1ccccc1)c1ccccn1` (stereo not given), the LC retention time was 6.01 min.
As to `CSc1ccc(C(=O)c2[nH]c(=O)[nH]c2C)cc1`, the LC retention time is 6.67 min.
With `C=CCCCn1cc(C(=O)c2cccc3ccccc23)c2ccccc21`, the LC retention time came to 12 min.
In the case of `CCCCCn1cc(C(=O)CC(C)(C)C(C)(C)O)c2ccccc21` it was 11.6 min.
With `CCN1CC2(COC)C(O)CC(OC)C34C5CC6(O)C(OC)C(O)C(OC(C)=O)(C5C6OC(=O)c5ccccc5)C(C(OC)C23)C14` (stereo not given) the figure was 7.09 min; with `COc1ccc2[nH]cc(CCNC(C)=O)c2c1`, 5.36 min; with `CCOc1ccc(C(C)(C)COCc2cccc(Oc3ccccc3)c2)cc1`, 14.1 min.
`CCOP(=O)(SC(C)CC)N1CCSC1=O` (stereo not given): the LC retention time turned out to be 7.73 min.
Consider `CC(C)NCC(O)COc1ccc(CC(N)=O)cc1` (stereo not given), for which the LC retention time worked out at 3.09 min.

The record behind these values is the RepoRT retention time repository (doi:10.1016/j.jhazmat.2019.121712).
